From patent US4876260A, “Oxathiolanes” (State of Israel, Israel Institute of Biological Research, priority 1988, dated 1989)

Tests used:
[1] = tested on: muscarinic receptors (3H-QNB sites, cerebellum, mainly M2); test: biochemical; format: binding, rat; conditions: for a:b": (h) Ki(3H-PZ) forebrain : Ki(3H-QNB) cerebellum; for b:b": (j) Ki(3H-QNB) forebrain : Ki(3H-QNB) cerebellum
[2] = molecular target: T1, M1 muscarinic receptors (3H-PZ sites, forebrain) (Rattus norvegicus, UniProt P08482); test: Displacement of 3H-Pirenzepine (3H-PZ, selective M1 antagonist) from rat forebrain homogenate; format: binding; conditions: for Ki: (a) forebrain
T1 sequence (P08482 1-460): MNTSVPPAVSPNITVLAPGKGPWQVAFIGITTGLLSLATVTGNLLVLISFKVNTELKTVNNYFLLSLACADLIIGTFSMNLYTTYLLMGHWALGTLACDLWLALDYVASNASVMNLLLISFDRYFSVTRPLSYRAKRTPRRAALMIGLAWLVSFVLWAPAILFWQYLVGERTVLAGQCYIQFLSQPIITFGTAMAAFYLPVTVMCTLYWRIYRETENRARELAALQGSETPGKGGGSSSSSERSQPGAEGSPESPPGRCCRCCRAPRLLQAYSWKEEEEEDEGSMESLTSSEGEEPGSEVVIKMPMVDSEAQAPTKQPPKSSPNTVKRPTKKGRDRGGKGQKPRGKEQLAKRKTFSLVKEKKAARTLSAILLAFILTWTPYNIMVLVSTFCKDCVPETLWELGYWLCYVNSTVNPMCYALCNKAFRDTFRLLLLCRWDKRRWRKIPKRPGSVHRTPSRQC

[3] = tested on: isolated guinea-pig ileum; test: Contraction of isolated guinea-pig ileum preparation
Excerpt: From this Table, it appears that compounds (III) were not so effective in contracting the guinea pig ileum preparation.

[4] = molecular target: T2, M1 muscarinic receptors (3H-PZ sites, frontal cortex) (Rattus norvegicus, UniProt P08482); test: Displacement of 3H-PZ from rat frontal cortex homogenate; format: binding; conditions: for Ki: (a') frontal cortex, read-out: Ki(3H-PZ); for a':c', Ki(3H-PZ):Ki(3H-CD): (g) frontal cortex ratio
T2 sequence (P08482 1-460): T1 sequence (P08482 1-460)

[5] = tested on: mice; test: Pharmacodynamic profile and general toxicity in mice; format: in vivo, CD-1 mice
Description: Male white mice of the CD-1 strain supplied by Charles River Ltd. (U.K.) were used throughout. An acclimatization period of at least three days was allowed between arrival and commencement of a particular experimental series. The animals were fed a complete commercial pelleted rodent diet without restriction during the acclimatization and study periods. Animals had free access to tap water. Body weights during testing were mostly within 20-28 g.
Test materials were prepared as aqueous solutions in physiological saline (0.9% NaCl), up to a maximum concentration of 10 mg./ml. All materials were freshly prepared on the morning prior to each dosing session. Dosages were expressed gravimetrically (mg./kg.), in terms of the materials as received.
Groups of mice (mostly n=5) received either i.v. or oral administration of the test materials at various dose levels. Dose volumes appropriate for respective dose levels selected, were determined for each animal according to body weights on the day of dosing. Any behavioral changes occurring during one to two hours after administration, as well as incidence of death up to 24 hours after dosing were recorded.

[6] = 10 mg/kg i.v., listed as (-)-III AF122B
[7] = 25 mg/kg i.v., listed as (-)-III AF122B
[8] = 50 mg/kg i.v., listed as (-)-III AF122B
[9] = 100 mg/kg i.v., immed = immediately
[10] = 200 mg/kg p.o., listed as (-)-III AF122B
[11] = 25 mg/kg i.v., listed as (-)-III AF122A
[12] = 50 mg/kg i.v., listed as (-)-III AF122A
[13] = 200 mg/kg p.o., listed as (-)-III AF122A
[14] = 50 mg/kg i.v., listed as (+)-III AF122A
[15] = 200 mg/kg p.o., listed as (+)-III AF122A

C[C@@H]1O[C@]2(CS1)CN1CCC2CC1 (relative stereo) [compound 3, 2-methylspiro(1,3-oxathiolan-5,3')quinuclidine]
a:b" [1]: 0.52
b:b" [1]: 0.88
a:b, Ki(3H-PZ):Ki(3H-QNB) [2]: 0.59
Ki [2]: 14.6 ± 2.9 µM

C[C@H]1O[C@]2(CS1)CN1CCC2CC1 (relative stereo) [compound 4, 2-methylspiro(1,3-oxathiolan-5,3')quinuclidine]
a:b" [1]: 0.07
a':b" ([1]; (i) Ki(3H-PZ) frontal cortex : Ki(3H-QNB) cerebellum): 0.1
b:b" [1]: 0.47
b':b" ([1]; (k) Ki(3H-QNB) frontal cortex : Ki(3H-QNB) cerebellum): 0.39
a:b, Ki(3H-PZ):Ki(3H-QNB) [2]: 0.14
Ki [2]: 1 ± 0.4 µM
Agonist type (remarks) [3]: Full agonist
a':b', Ki(3H-PZ):Ki(3H-QNB) [4]: 0.13
Ki [4]: 960 ± 50 nM
a':c', Ki(3H-PZ):Ki(3H-CD) [4]: 2.5

C[C@H]1O[C@]2(CS1)CN1CCC2CC1 (single isomer, unassigned) [Compound #5, 2-methylspiro(1,3-oxathiolan-5,3')quinuclidine]
a:b" [1]: 0.14
b:b" [1]: 0.47
a:b, Ki(3H-PZ):Ki(3H-QNB) [2]: 0.3
Ki [2]: 1.1 ± 0.3 µM
Ki [4]: 410 ± 80 nM
a':c', Ki(3H-PZ):Ki(3H-CD) [4]: 2.1

C[C@H]1O[C@]2(CS1)CN1CCC2CC1 (single isomer, unassigned) [compound 6, 2-methylspiro(1,3-oxathiolan-5,3')quinuclidine]
a:b" [1]: 0.1
b:b" [1]: 0.48
a:b, Ki(3H-PZ):Ki(3H-QNB) [2]: 0.20
Ki [2]: 9.6 ± 1.8 µM
Ki [4]: 4630 ± 420 nM
a':c', Ki(3H-PZ):Ki(3H-CD) [4]: 0.6

CC1OCC2(CN3CCC2CC3)S1 (single isomer, unassigned) [compound 9, 2-methylspiro(1,3-oxathiolan-4,3')quinuclidine]
Analgesia (nonresponsiveness to tail pinch), No. affected/total treated [5, 6]: 3/5
Mortality, No. dead/total treated [5, 6]: 0/5
Analgesia (nonresponsiveness to tail pinch), No. affected/total treated ([5]; 25 mg/kg i.v.): 5/5
Vocalization, No. affected/total treated ([5]; 25 mg/kg i.v.): 1/5
Altered motor activity [5, 7]: a+h
Convulsive seizures, No. affected/total treated [5, 7]: 3/5
Mortality, No. dead/total treated [5, 7]: 0/5
Respiratory distress, No. affected/total treated [5, 7]: 2/5
Tremors, No. affected/total treated [5, 7]: 3/5
Convulsive seizures, No. affected/total treated [5, 8]: 2/2
Mortality, No. dead/total treated [5, 8]: 2/2
Mortality, time after drug administration [5, 8]: 5 s
Altered motor activity ([5]; 50 mg/kg p.o.): a+h
Mortality, time after drug administration [5, 9]: immed
Mortality, No. dead/total treated ([5]; 100 mg/kg i.v., listed as (-)-III AF122B): 2/2
Convulsive seizures, No. affected/total treated ([5]; 100 mg/kg p.o.): 2/5
Respiratory distress, No. affected/total treated ([5]; 100 mg/kg p.o.): 1/5
Tremors, No. affected/total treated ([5]; 100 mg/kg p.o.): 1/5
Mortality, No. dead/total treated ([5]; 100 mg/kg p.o., listed as (-)-III AF122B): 1/5
Analgesia (nonresponsiveness to tail pinch), No. affected/total treated [5, 10]: 3/4
Convulsive seizures, No. affected/total treated [5, 10]: 4/4
Mortality, No. dead/total treated [5, 10]: 4/4
Respiratory distress, No. affected/total treated [5, 10]: 3/5
Vocalization, No. affected/total treated [5, 10]: 2/4
Mortality, time after drug administration ([5]; 200 mg/kg p.o., m = minutes, listed as (-)-III AF122B): 20 m
Contraction of guinea pig ileum (in words) ([3]; listed as (-)-AF122B): inconsistent contractile response: sometimes at high concentrations it induced contractions, whereas at other times it did not
Ki [4]: 12100 nM

CC1OCC2(CN3CCC2CC3)S1 (single isomer, unassigned) [compound 12, 2-methylspiro(1,3-oxathiolan-4,3')quinuclidine]
Mortality, No. dead/total treated ([5]; 10 mg/kg i.v., listed as (-)-III AF122A): 0/5
Exophthalmus, No. affected/total treated ([5]; 25 mg/kg i.v.): 4/5
Convulsive seizures, No. affected/total treated [5, 11]: 1/5
Mortality, No. dead/total treated [5, 11]: 1/5
Mortality, time after drug administration [5, 11]: 10 s
Respiratory distress, No. affected/total treated [5, 11]: 4/5
Tremors, No. affected/total treated [5, 11]: 4/5
Convulsive seizures, No. affected/total treated [5, 12]: 1/1
Mortality, No. dead/total treated [5, 12]: 1/1
Mortality, time after drug administration [5, 12]: 10 s
Tremors, No. affected/total treated [5, 12]: 1/1
Mortality, time after drug administration [5, 9]: immed
Mortality, No. dead/total treated ([5]; 100 mg/kg i.v., listed as (-)-III AF122A): 1/1
Mortality, No. dead/total treated ([5]; 100 mg/kg p.o., listed as (-)-III AF122A): 0/5
Tremors, No. affected/total treated ([5]; 200 mg/kg p.o.): 3/5
Convulsive seizures, No. affected/total treated [5, 13]: 1/5
Mortality, No. dead/total treated [5, 13]: 1/5
Respiratory distress, No. affected/total treated [5, 13]: 3/5
Vocalization, No. affected/total treated [5, 13]: 2/5
Mortality, time after drug administration ([5]; 200 mg/kg p.o., m = minutes, listed as (-)-III AF122A): 10 m
Ki [4]: 350 ± 40 nM

CC1OCC2(CN3CCC2CC3)S1 (single isomer, unassigned) [compound 13, 2-methylspiro(1,3-oxathiolan-4,3')quinuclidine]
Mortality, No. dead/total treated ([5]; 10 mg/kg i.v., listed as (+)-III AF122A): 0/5
Mortality, No. dead/total treated ([5]; 25 mg/kg i.v., listed as (+)-III AF122A): 0/5
Exophthalmus, No. affected/total treated ([5]; 50 mg/kg i.v.): 3/5
Convulsive seizures, No. affected/total treated [5, 14]: 5/5
Mortality, No. dead/total treated [5, 14]: 4/5
Mortality, time after drug administration [5, 14]: 30 s
Tremors, No. affected/total treated [5, 14]: 4/5
Mortality, No. dead/total treated ([5]; 50 mg/kg p.o.): 0/5
Mortality, time after drug administration [5, 9]: immed
Mortality, No. dead/total treated ([5]; 100 mg/kg i.v., listed as (+)-III AF122A): 1/1
Mortality, No. dead/total treated ([5]; 100 mg/kg p.o., listed as (+)-III AF122A): 0/5
Altered motor activity [5, 15]: a+h
Mortality, No. dead/total treated [5, 15]: 0/5
Ki [4]: 4210 ± 470 nM
